Measured values taken from patent US20090325957A1, “MORPHOLINO PYRIMIDINE DERIVATIVES USEFUL IN THE TREATMENT OF PROLIFERATIVE DISORDERS” (ASTRAZENECA AB, priority 2006, published 2009).
Several values for one entry are separate records, joined by “and”; a condition that tells them apart may be missing. Identical values can stand only once.

Each compound was assayed against recombinant mTOR (Homo sapiens, UniProt P42345) (assay: In vitro mTOR kinase assay (AlphaScreen), Test (a)). Conditions: average value; read-out: Test (a) average IC50.
Chain of recombinant mTOR (P42345 1362-2549): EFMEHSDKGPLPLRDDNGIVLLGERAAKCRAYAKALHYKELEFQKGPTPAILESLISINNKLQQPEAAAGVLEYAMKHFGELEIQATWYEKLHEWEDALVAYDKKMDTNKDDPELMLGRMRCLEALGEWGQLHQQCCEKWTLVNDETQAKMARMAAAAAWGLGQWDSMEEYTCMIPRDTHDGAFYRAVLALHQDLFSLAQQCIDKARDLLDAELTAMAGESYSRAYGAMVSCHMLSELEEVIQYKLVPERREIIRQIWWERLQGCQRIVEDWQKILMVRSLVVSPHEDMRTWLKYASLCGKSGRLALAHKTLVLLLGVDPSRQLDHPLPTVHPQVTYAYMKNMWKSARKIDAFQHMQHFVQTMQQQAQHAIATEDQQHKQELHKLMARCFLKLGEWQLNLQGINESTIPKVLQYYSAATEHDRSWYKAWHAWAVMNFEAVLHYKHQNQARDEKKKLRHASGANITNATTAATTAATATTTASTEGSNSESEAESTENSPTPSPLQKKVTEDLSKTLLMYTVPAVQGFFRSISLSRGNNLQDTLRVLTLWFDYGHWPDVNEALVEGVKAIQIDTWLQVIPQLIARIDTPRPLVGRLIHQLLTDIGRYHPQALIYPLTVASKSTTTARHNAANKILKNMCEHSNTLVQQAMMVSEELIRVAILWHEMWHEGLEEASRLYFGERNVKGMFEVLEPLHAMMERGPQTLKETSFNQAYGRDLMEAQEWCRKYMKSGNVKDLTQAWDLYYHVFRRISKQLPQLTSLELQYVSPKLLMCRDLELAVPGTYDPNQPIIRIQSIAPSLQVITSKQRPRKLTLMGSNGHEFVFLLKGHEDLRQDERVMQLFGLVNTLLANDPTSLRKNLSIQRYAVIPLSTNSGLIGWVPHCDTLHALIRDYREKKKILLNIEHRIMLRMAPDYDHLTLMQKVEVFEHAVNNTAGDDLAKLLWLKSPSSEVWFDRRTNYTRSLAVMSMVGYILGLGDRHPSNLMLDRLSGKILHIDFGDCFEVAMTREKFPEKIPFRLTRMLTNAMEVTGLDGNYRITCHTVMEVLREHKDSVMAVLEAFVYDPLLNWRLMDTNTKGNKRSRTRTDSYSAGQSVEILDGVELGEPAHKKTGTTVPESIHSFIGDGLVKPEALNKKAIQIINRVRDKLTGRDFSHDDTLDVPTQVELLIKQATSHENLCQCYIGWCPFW
Format: biochemical
Description: (a) In Vitro mTOR Kinase Assay
The assay used AlphaScreen technology (Gray et al., Analytical Biochemistry, 2003, 313: 234-245) to determine the ability of test compounds to inhibit phosphorylation by recombinant mTOR.
The HEK293 FLAG-tagged mTOR (1362-2549) stable cell line was routinely maintained at 37° C. with 5% CO2 up to a confluency of 70-90% in Dulbecco's modified Eagle's growth medium (DMEM; Invitrogen Limited, Paisley, UK Catalogue No. 41966-029) containing 10% heat-inactivated foetal calf serum (FCS; Sigma, Poole, Dorset, UK, Catalogue No. F0392), 1% L-glutamine (Gibco, Catalogue No. 25030-024) and 2 mg/ml Geneticin (G418 sulfate; Invitrogen Limited, UK Catalogue No. 10131-027). Following expression in the mammalian HEK293 cell line, expressed protein was purified using the FLAG epitope tag using standard purification techniques.
Test compounds were prepared as 10 mM stock solutions in DMSO and diluted into water as required to give a range of final assay concentrations. Aliquots (2 μl) of each compound dilution were placed into a well of a Greiner 384-well low volume (LV) white polystyrene plate (Greiner Bio-one).
Control wells that produced a maximum signal corresponding to maximum enzyme activity were created by using 5% DMSO instead of test compound. […] These assay solutions were incubated for 2 hours at room temperature.
Each reaction was stopped by the addition of 10 μl of a mixture of EDTA (50 mM), bovine serum albumin (BSA; 0.5 mg/mL) and Tris-HCl pH7.4 buffer (50 mM) containing
p70 S6 Kinase (T389) 1A5 Monoclonal Antibody (Cell Signalling Technology, Catalogue No. 9206B) and AlphaScreen Streptavidin donor and Protein A acceptor beads (200 ng; Perkin Elmer, Catalogue No. 6760002B and 6760137R respectively) were added and the assay plates were left for about 20 hours at room temperature in the dark. The resultant signals arising from laser light excitation at 680 nm were read using a Packard Envision instrument.
Phosphorylated biotinylated peptide is formed in situ as a result of mTOR mediated phosphorylation. The phosphorylated biotinylated peptide that is associated with AlphaScreen Streptavidin donor beads forms a complex with the p70 S6 Kinase (T389) 1A5 Monoclonal Antibody that is associated with Alphascreen Protein A acceptor beads. Upon laser light excitation at 680 nm, the donor bead: acceptor bead complex produces a signal that can be measured. Accordingly, the presence of mTOR kinase activity results in an assay signal. In the presence of an mTOR kinase inhibitor, signal strength is reduced.
mTOR enzyme inhibition for a given test compound was expressed as an IC50 value.
CS(=O)(=O)Cc1cc(N2CCOCC2)nc(-c2ccc(NS(C)(=O)=O)c(CO)c2)n1 [Example 1, N-[2-(Hydroxymethyl)-4-[4-(methylsulfonylmethyl)-6-morpholin-4-yl-pyrimidin-2-yl]phenyl]methanesulfonamide] was tested, and the IC50 was 5 µM.
CS(=O)(=O)Cc1cc(N2CCOCC2)nc(-c2ccc(CNS(C)(=O)=O)cc2)n1 [Example 2, N-[[4-[4-(Methylsulfonylmethyl)-6-morpholin-4-yl-pyrimidin-2-yl]phenyl]methyl]methanesulfonamide] showed an IC50 of 6.8 µM.
For CS(=O)(=O)Cc1cc(N2CCOCC2)nc(-c2ccc(NS(=O)(=O)C3CC3)cc2)n1 [Example 3, N-[4-[4-(Methylsulfonylmethyl)-6-morpholin-4-yl-pyrimidin-2-yl]phenyl]cyclopropanesulfonamide], the IC50 was 0.88 µM.
In the case of CCS(=O)(=O)Nc1ccc(-c2nc(CS(C)(=O)=O)cc(N3CCOCC3)n2)cc1 [Example 3a, N-[4-[4-(methylsulfonylmethyl)-6-morpholin-4-yl-pyrimidin-2-yl]phenyl]ethanesulfonamide], the IC50 is reported as 1.4 µM.
In the case of CCCS(=O)(=O)Nc1ccc(-c2nc(CS(C)(=O)=O)cc(N3CCOCC3)n2)cc1 [Example 3b, N-[4-[4-(methylsulfonylmethyl)-6-morpholin-4-yl-pyrimidin-2-yl]phenyl]propane-1-sulfonamide], the IC50 is reported as 4 µM.
Work on CCCCS(=O)(=O)Nc1ccc(-c2nc(CS(C)(=O)=O)cc(N3CCOCC3)n2)cc1 [Example 3c, N-[4-[4-(methylsulfonylmethyl)-6-morpholin-4-yl-pyrimidin-2-yl]phenyl]butane-1-sulfonamide] yielded an IC50 of 6 µM.
CS(=O)(=O)Cc1cc(N2CCOCC2)nc(-c2ccc(NS(=O)(=O)Cc3ccc(F)cc3)cc2)n1 [Example 3d, 1-(4-fluorophenyl)-N-[4-[4-(methylsulfonylmethyl)-6-morpholin-4-yl-pyrimidin-2-yl]phenyl]methanesulfonamide] showed an IC50 of 7.1 µM.
CS(=O)(=O)Cc1cc(N2CCOCC2)nc(-c2ccc(NS(C)(=O)=O)cc2)n1 [Example 4, N-[4-[4-(Methylsulfonylmethyl)-6-morpholin-4-yl-pyrimidin-2-yl]phenyl]methanesulfonamide] gave an IC50 of 2.6 µM.
For C[C@H]1COCCN1c1cc(CS(C)(=O)=O)nc(-c2ccc(CNS(C)(=O)=O)cc2)n1 [Example 5, N-[[4-[4-[(3S)-3-Methylmorpholin-4-yl]-6-(methylsulfonylmethyl)pyrimidin-2-yl]phenyl]methyl]methanesulfonamide], the IC50 was 4.5 µM.
C[C@H]1COCCN1c1cc(CS(C)(=O)=O)nc(-c2ccc(NS(C)(=O)=O)cc2)n1 [Example 6, N-[4-[4-[(3S)-3-Methylmorpholin-4-yl]-6-(methylsulfonylmethyl)pyrimidin-2-yl]phenyl]methanesulfonamide] showed an IC50 of 1 µM.

Same assay, conditions: single values, measured on three occasions; read-out: IC50 versus mTOR kinase
For CS(=O)(=O)Cc1cc(N2CCOCC2)nc(-c2ccc(NS(C)(=O)=O)cc2)n1 [Example 4, N-[4-[4-(Methylsulfonylmethyl)-6-morpholin-4-yl-pyrimidin-2-yl]phenyl]methanesulfonamide], the IC50 was 3.32 µM and 2.49 µM and 2.25 µM.
